Data from paper PMC11280475, “Investigation of Stabilized Amorphous Solid Dispersions to Improve Oral Olaparib Absorption” (Pharmaceutics, 2024).
In brackets after ≈: the same amount, converted by molar mass. Read-outs that look alike come from different tables or passages of the source. One block for each compound: values may come before it.

Tests used:
[1] = Saturation solubility of crystalline OLA in 1% (w/v) polymer solutions; assay type: physicochemical; details: 37 °C
Protocol: (§1) The polymers used to select the appropriate polymer for OLA-SD were chosen from those widely utilized in solid dispersions. To select the polymers for the solid dispersion system, the solubility of OLA in 1% (w/v) polymer solutions was assessed. Initially, 10 mg of crystalline OLA was added to 1 mL of each polymer solution, vortexed for 10 min, and then shaken at 100 rpm in a 37 °C water bath for 72 h. This process followed the saturation solubility evaluation method described in Section 2.3. Subsequently, to evaluate the kinetic solubility of OLA, both crystalline and amorphous forms, totaling 10 mg, were added to 10 mL of the selected polymer solutions, based on the results of the OLA saturation solubility tests. After vortexing for 10 min, the samples were shaken under the same conditions. During this 72 h period, samples were collected at predetermined intervals of 1, 6, 12, 24, 48, and 72 h, and the concentration of OLA was measured through HPLC analysis.

[2] = cited from earlier work
[3] = Saturation solubility of OLA in aqueous solutions; assay type: physicochemical; details: pH 1.2, pH 4.0, pH 6.8, regardless of pH, 37 °C
Protocol: The solubility of OLA was evaluated in distilled water (D.W.), pH 1.2, pH 4.0, and pH 6.8 solutions. The pH 1.2 solution was prepared using 0.1 M hydrochloric acid and sodium chloride, while the pH 4.0 solution utilized a 0.05 M sodium acetate buffer solution, and the pH 6.8 solution was made by combining a 0.2 M potassium dihydrogen phosphate solution with a 0.2 M sodium hydroxide solution. To determine the saturation solubility, an excess amount of both crystalline OLA and amorphous OLA, totaling 10 mg each, was added to 1 mL of each solution. The mixtures were vortexed for 10 min and then shaken at 100 rpm in a 37 °C water bath for 72 h. After centrifugation at 13,500 rpm for 10 min, the supernatant was filtered through a 0.45 μm syringe filter to remove insoluble OLA. The resultant solution was diluted tenfold with the HPLC mobile phase, and the concentration of OLA in each solution was measured using the HPLC system mentioned in Section 2.2. Subsequently, to assess the kinetic solubility of OLA, a dissolution test was conducted using 150 mg of both crystalline and amorphous OLA in 900 mL of each aforementioned solution. […] Samples (3 mL) were taken at predetermined times (0.5, 1, 2, 3, 4, 6, 12 h), filtered through a 0.45 μm syringe filter, diluted tenfold with the HPLC mobile phase, and analyzed using the same HPLC system. […]

[4] = In vivo pharmacokinetic study after oral administration; set-up: species or system Sprague Dawley (SD) rats; details: 20 mg/kg, rats; for AUC(0-t): read-out: AUC0–24
Protocol: Male Sprague Dawley (SD) rats (age: 9–10 weeks, weight: 250 ± 20 g) for the in vivo pharmacokinetic study of OLA-SD were purchased from Koatech Co. (Pyeongtaek, Republic of Korea). The rats were acclimatized to standard laboratory conditions (average temperature of 25 ± 2 °C and a 12/12 h light/dark cycle) for one week before the experiment, with unrestricted access to food and drinking water ad libitum. The Institutional Animal Care and Use Committee (IACUC) of Gyeongsang National University (Approval No. GNU-240228-R0049) approved the animal study protocol in accordance with NIH policies and the Animal Welfare Act. The SD rats were randomly divided into four groups, each consisting of six rats. Each rat was anesthetized, and the right femoral artery was cannulated using a polyethylene tube. Crystalline OLA, amorphous OLA, Kollidon VA64-based OLA-SD (F1), and HPMC P645-based OLA-SD (F3) were dispersed in 1 mL of 0.5% carboxymethyl cellulose and administered orally to the rats at a dose of 20 mg/kg. Blood (350 μL) was collected through the cannulated tube at 0.25, 0.5, 1, 2, 3, 6, 9, 12, and 24 h and immediately centrifuged at 13,500 rpm for 15 min at 4 °C. Subsequently, plasma was separated from the supernatant and stored at −20 °C until quantitative analysis. To analyze the plasma samples, 50 μL of internal standard solution (canagliflozin 20 μg/mL in acetonitrile) and 300 μL of acetonitrile were added to 150 μL of plasma. The samples were then mixed in a vortex blender for 3 min for deproteinization and drug extraction. Subsequently, the samples were centrifuged at 13,500 rpm for 15 min at 4 °C. The supernatant was filtered using a 0.2 μm filter and transferred to analytical vials for HPLC analysis. The concentration of OLA in plasma was analyzed using the second HPLC conditions mentioned in Section 2.2. Pharmacokinetic parameters calculated using non-compartmental analysis included the area under the plasma concentration–time curve from 0 to 24 h (AUC0–24), the maximum plasma concentration (Cmax), the time to reach maximum plasma concentration (Tmax), the elimination rate constant (Kel), the half-life (T1/2), and the mean residence time (MRT).
The formula for calculating AUC is as follows: AUC=∑i=1n−1(Ci+Ci+1)/2×[…] where Ci and Ci+1 are the concentration of the drug at consecutive time points, ti and ti+1 are the corresponding time points, and n is the number of measured data points.
The formula for calculating Cmax is as follows: Cmax=max(Ct) where Ct is the concentration of the drug at time t.
The formula for calculating Tmax is Tmax=t at which Ct is maximal
The formula for calculating Kel is […] where C1 and C2 are the concentration of the drug at two consecutive time points during the elimination phase, and t1 and t2 are the corresponding time points.
The formula for calculating T1/2 is T1/2=ln2/Kel where Kel is the elimination rate constant.
The formula for calculating MRT is MRT=AUMC/AUC where AUMC is the area under the moment curve and AUC is the area under the curve.

[5] = Kinetic solubility of OLA in 1% (w/v) polymer solutions; assay type: physicochemical; details: thermodynamic from solid, amorphous OLA
Protocol: as §1

[6] = In vitro dissolution test (USP apparatus II); assay type: physicochemical; details: 300 mL, 37 °C, 50 rpm, 150 mg OLA equivalent
Protocol: To assess the in vitro release of OLA from the solid dispersions, a dissolution test was performed under conditions similar to those described in Section 2.3. Briefly, the dissolution media were adjusted to pH 1.2 and pH 6.8 (300 mL each), with the temperature maintained at 37 ± 0.5 °C, and the test was conducted at a paddle speed of 50 rpm. Each sample of the OLA-SD, equivalent to 150 mg of OLA, was immersed in the dissolution media. Additionally, to examine the effect of polymers in the solid dispersion, a parallel dissolution test was conducted with 150 mg each of crystalline OLA and amorphous OLA. As mentioned, the solution was sampled at predetermined times (1, 6, 12, 18, 24, 48, and 72 h) and the concentration of OLA was assessed using an HPLC system. Additionally, after the kinetic dissolution tests in the pH 1.2 solution, the solution was centrifuged, the supernatant was removed, and the remaining OLA-SD residue was dried overnight for 12 h. The crystallinity state of the dried OLA-SD was examined using an X-ray diffractometer. The detailed method is described in Section 2.6.3.

[7] = male, Sprague Dawley, rat, plasma, po, mean ± S.D. (n = 6)

solubility at 72 h ([1]; crystalline OLA in 1% (w/v) HP-β-CD solution, read-out: saturation solubility in HP-β-CD): ~180 µg/mL (≈ 414 µM)
solubility at 72 h ([1]; crystalline OLA in 1% (w/v) polymer solutions other than HP-β-CD, read-out: saturation solubility in most other polymer solutions): < 150 µg/mL
solubility at 72 h ([3]; aqueous pH solutions): ~100 µg/mL (≈ 230 µM)
half-life [4, 7]: 4.18 ± 2.27 h
k el [4, 7]: 5.28e-05 s⁻¹
AUC(0-t) [4, 7]: 370 ± 63.8 ng·h/mL
MRT ([4]; male, Sprague Dawley, rat, plasma, po, mean ± S.D. (n = 6), read-out: MRT): 2.97 ± 0.69 h
AUC(0-t) ([4]; male, Sprague Dawley, rat, plasma, po): 370 ± 63.8 ng·h/mL
Cmax [4]: 187 ± 82.5 ng/mL
Cmax ([4]; mean ± S.D. (n = 6)): 187.31 ± 82.55 ng/mL
Tmax ([4]; mean ± S.D. (n = 6)): 0.63 ± 0.31 h
SMILES: O=C(c1cc(Cc2n[nH]c(=O)c3ccccc23)ccc1F)N1CCN(C(=O)C2CC2)CC1 [Crystalline OLA, olaparib]
solubility in aqueous solution ([2]; aqueous solution): approximately 0.1 mg/mL
basic pKa [2]: −1.25
Biopharmaceutics Classification System (BCS) class ([2]; low solubility and low permeability): class IV

saturation solubility ([3]; 72 h): around 100 µg/mL
solubility kinetic at 1 h ([5]; 1% (w/v) HP-β-CD solution, aqueous with cosolvent or surfactant or cyclodextrin, 1% (w/v) HP-β-CD, 37 °C, read-out: kinetic solubility in HP-β-CD at 1 h): 337 ± 29.7 µg/mL (≈ 775 µM)
solubility kinetic at 72 h ([5]; 1% (w/v) HP-β-CD solution, aqueous with cosolvent or surfactant or cyclodextrin, 1% (w/v) HP-β-CD, 37 °C, read-out: kinetic solubility in HP-β-CD at 72 h): 398 ± 10.9 µg/mL (≈ 916 µM)
solubility kinetic at 1 h ([5]; 1% (w/v) HPMC P645 solution, 1% (w/v) HPMC P645, 37 °C, read-out: kinetic solubility in HPMC P645 at 1 h): 247 ± 43.6 µg/mL (≈ 569 µM)
solubility kinetic at 72 h ([5]; 1% (w/v) HPMC P645 solution, 1% (w/v) HPMC P645, 37 °C, read-out: kinetic solubility in HPMC P645 at 72 h): 353 ± 44.2 µg/mL (≈ 813 µM)
solubility kinetic at 1 h ([5]; 1% (w/v) Kollidon VA64 solution, 1% (w/v) Kollidon VA64, 37 °C, read-out: kinetic solubility in Kollidon VA64 at 1 h): 593 ± 72.9 µg/mL (≈ 1360 µM)
solubility kinetic at 72 h ([5]; 1% (w/v) Kollidon VA64 solution, 1% (w/v) Kollidon VA64, 37 °C, read-out: kinetic solubility in Kollidon VA64 at 72 h): 343 ± 6.5 µg/mL (≈ 790 µM)
dissolution rate ([6]; pH 1.2, 1 h): 43.4 ± 3.3%
dissolution rate ([6]; pH 1.2, 72 h): 28.2 ± 3.9%
dissolution rate ([6]; pH 6.8, 1 h): 44.6 ± 3.1%
dissolution rate ([6]; pH 6.8, 72 h): 27.0 ± 3.0%
AUC0–24 [4]: 471 ± 150 ng·h/mL
Cmax [4]: 415 ± 148 ng/mL
increase of AUC0–24 over crystalline OLA ([4]; compared to crystalline OLA): 1.27 fold
increase of Cmax over crystalline OLA ([4]; compared to crystalline OLA): 2.22 fold
AUC0–24 ([4]; mean ± S.D. (n = 6)): 471.40 ± 150.17 ng·h/mL
Cmax ([4]; mean ± S.D. (n = 6)): 415.24 ± 148.20 ng/mL
Kel ([4]; mean ± S.D. (n = 6)): 0.20 ± 0.05 h⁻¹
MRT ([4]; mean ± S.D. (n = 6)): 4.28 ± 4.52 h
T1/2 ([4]; mean ± S.D. (n = 6)): 3.68 ± 1.04 h
Tmax ([4]; mean ± S.D. (n = 6)): 0.29 ± 0.10 h
SMILES: O=C(c1cc(Cc2n[nH]c(=O)c3ccccc23)ccc1F)N1CCN(C(=O)C2CC2)CC1 [Amorphous OLA, olaparib]
